Results: patent publication US8586569B2, “Betulonic and betulinic acid derivatives” (priority 2006, dated 2013)

System: lymphocytes of patients suffering from chronic lymphoid leukaemia (human leukaemia cells)
Test: Sensibility of chronic lymphoid leukaemia lymphocytes in culture, 3H-thymidine incorporation (CPM) with or without PHA stimulation
Assay type: cell-based
Procedure: The sensibility of human leukaemia cells to acetoxymethyl 3β-(methoxypolyethylene glycol acetoxy)-lup-20(29)-en-28-oate 4c-β at different concentrations (from 0.04 mM up to 1 mM) was tested in vitro. The lymphocytes of three patients (4266866, 4266860 and 4262311) suffering from chronic lymphoid leukaemia were used in cell cultures.
On day 0: A multi-well plate was prepared per patient, each comprising 10^6 cells/well in a total volume of 1 ml. Cells, RPMI (cell growth medium) and test compound 4c-β were added in accordance with table 2 (all experiments were duplicated). The test compound dissolved in RPMI was added in the following amounts: 10 μl≡0.04 mM, 50 μl≡0.2 mM, 100 μl≡0.4 mM, 150 μl≡0.6 mM, 200 μl≡0.8 mM, and 250 μl≡1 mM.
On day 2: • 500 μl was taken from each well of plate 1 and put into a well of plate 2. • Plate 2: cells were tritiated with ^3H-thymidine for 4 hours; after the 4 hours incubation in the presence of radioactivity, plate 2 was harvested and radioactivity was counted. • Plate 1: 50 μl PHA was added to the 500 μl of each well of plate 1.
On day 5: • Plate 1: cells and PHA were tritiated with ^3H-thymidine for 4 hours; after the 4 hours incubation in the presence of radioactivity, plate 1 was harvested and radioactivity was counted.
PHA (a lectin named phytoagglutine, which is a mitogen activating living cells) was added to the cells in culture. PHA acts as a stimulating agent. All human lymphocytes have receptors for this type of lectin and all human lymphocytes undergo lymphoblastic transformation when stimulated by PHA. By adding PHA to the cells in culture, it was possible to measure whether the cells were still alive.
CPM stands for counts per minute and measures the disintegration of the tritiated ^3H-thymidine. Thus, CPM reflects the radioactivity of the cells' DNA having incorporated the tritiated ^3H-thymidine after mitosis. […]
On day 0: A multi-well plate was prepared, comprising 10^6 cells/well in a total volume of 1.5 ml. […] The test compound dissolved in RPMI was added in the following amounts: 125 μl≡0.5 mM and 250 μl≡1 mM. […]
The sensibility of human leukaemia cells to acetoxymethyl 3β-(methoxypolyethylene glycol acetoxy)-lupan-28-oate 8c-β at different concentrations (0.5 mM and 1 mM) was tested in vitro. The lymphocytes of one patient (4316182) suffering from chronic lymphoid leukaemia were used in cell cultures. […]
On day 2: • Plate 1: cells were tritiated with ^3H-thymidine for 4 hours; after the 4 hours incubation in the presence of radioactivity, plate 1 was harvested and radioactivity was counted. • Plate 2: cells were tritiated with ^3H-thymidine for 4 hours; after the 4 hours incubation in the presence of radioactivity, plate 2 was harvested and radioactivity was counted.

[1] = 0.5 mM and 1 mM, one patient, FIG. 4

Substance | activation of cells by PHA after contact with test compound (plate 1, PHA added day 2, counted day 5, 0.04 mM up to 1 mM, three patients, FIGS. 2a-c) | time within which cells contacted with test compound were killed (CPM after 3H-thymidine) (plate 2, 0.04 mM up to 1 mM, three patients, FIGS. 2a-c) | killing of cells by test compound [1] | reactivation of cells by addition of PHA after contact with test compound [1]
Acetoxymethyl 3β-(methoxypolyethylene glycol acetoxy)-lup-20(29)-en-28-oate [compound 4c-β] | could no longer be activated by PHA | ≤ 48 h | – | –
Acetoxymethyl 3β-(methoxypolyethylene glycol acetoxy)-lupan-28-oate [compound 8c-β] | – | – | killed the cells | unable to be reactivated by the addition of PHA
